Laboratory results published in US11795510B2, “Identification of epigenomic reprogramming in cancer and uses thereof” (The Johns Hopkins University, priority 2016, dated 2023).
“Also recorded” adds a separate entry of the source.

What was measured:
Type in all cases: cell-based, human
[1] = test system: global chromatin modifications (H3K9Me2/3, acetylation) in distant metastatic subclones (A38Lg); test: Western blots of histone modifications, distant metastatic subclones
Protocol: (§1) Histones were acid extracted as described and western blots performed on 3.5 ug histones, which were checked by Ponceau stains prior to western blot to ensure equal loading. Densitometry was performed with ImageJ software. RNA was extracted with Trizol reagent (Life Technologies) and isopropanol precipitated. Genomic DNA was purified with MasterPure DNA extraction reagents (Epicenter). Immunohistochemistry, H&E staining, and immunofluorescence on formalin-fixed, paraffin-embedded (FFPE) tissue microarray sections (TMAs) were performed according to standard procedures.
(§2) RNAi experiments were performed with siRNA transfections (Oligofectamine, Life Technologies) using negative control siRNA (Sigma, SIC001) and pre-designed siRNA oligonucleotides against indicated genes in parallel (Sigma, PGD: SASI_Hs02 00334150, CDH2: SASI_Hs01_00153995, TOP2B: SASI_Hs02_00311874). siRNAs against mutant KRAS^G12V (CUACGCCAACAGCUCCAAC) (SEQ ID NO:1) were custom designed. Cells were incubated with siRNAs for 4 days after transfection and harvested. For drug treatments in 2-D, cells were grown to 70-80% confluency and treated for 3 days with 250 uM 6AN or DMSO negative control.

[2] = test system: distant metastatic subclones; test: 3-D suspension tumorsphere assay, distant metastatic subclones
Protocol: 3-D matrigel assays were adapted from Cheung et al. (Control of alveolar differentiation by the lineage transcription factors GATA6 and HOPX inhibits lung adenocarcinoma metastasis. Cancer Cell 23, 725-38 (2013)). Briefly, 2-D cultures were trypsinized into single cells, 4,000cells/mL were suspended and thoroughly mixed in ice-cold DMEM containing 5% matrigel (BD systems) and 2% FBS (+/−DMSO/6AN as needed), 500 ul plated in quadruplicate into 24 well ultra-low attachment plates, and incubated for at least 7 days to allow tumor growth. Well-formed tumors were then counted and representative photographs taken with an EVOS instrument. 3-D suspension tumorsphere assays were performed with 20,000 starting cells/well in ultra-low attachment 6 well plates as described, and tumors counted/photographed after at least 7 days of tumor growth.

[3] = test system: H3K9Me2, H3K27Ac, H3K27Me3 in LOCK regions of A38Lg; test: ChIP-seq on control (DMSO) and 6AN-treated A38Lg cells; details: DMSO vs. 6AN
Protocol: as §2
Tests for statistical significance (two-tailed students t-test) were performed on data collected from technical replicate (performed in parallel at the same time) or biological replicate (performed at different times) experiments as indicated in the figure legends using excel software for western blot densitometry, MTT assays, and tumor measurements. Whole genome bisulfite sequencing and RNA-seq were performed with HiSeq instruments (Illumina) as described in Hansen et al. (Increased methylation variation in epigenetic domains across cancer types. Nat Genet 43, 768-75 (2011)). ChIP assays were performed as previously described for fixed cells with sonication. For ChIP-qPCR, equal amounts of paired input/IP DNA were amplified by real-time PCR (Roche LightCycler96) and fold enrichments calculated. Primer sequences are listed in Supplementary Table 11. […] IP sequencing reads were normalized to their corresponding inputs. […]
Chip-seq data processing. For 46 bp paired-end Illumina HiSeq2000 sequencing data, reads were aligned against human genome (hg19) using BWA with default parameters as described in Li et al. (Fast and accurate short read alignment with Burrows-Wheeler transform. Bioinformatics 25, 1754-60 (2009)). After alignment, duplicate reads were removed and only uniquely aligned reads were kept for further analysis. For 48 bp single-end Solid sequencing data, reads were aligned using Bowtie^7 with default parameters and only uniquely aligned reads were kept for further analysis. […]

[4] = test system: CDH2 and TOP2B expression; test: Real-time RT-PCR of CDH2 and TOP2B
Protocol: as §1

## NC(=O)c1ccc(N)nc1 [6AN, 6-aminonicotinamide]
[1]; 3d treatment followed by removal for an additional 3d
  persistence of chromatin changes upon removal of 6AN from the media: persisted
[1]; across distant metastatic subclones
  H3K27Me3 or H4K20Me3, western blot densitometry: minimal or non-recurrent effects
[1]; across distant metastatic subclones, 250 uM, 3 days
  reprogrammed chromatin modifications (H3K9Me2, acetylation), western blot densitometry: quantitatively reversed; also recorded: selectively reversed
[1]; distant metastatic subclones
  acetylation (western blot): decreased
  global H3K9Me2 (western blot): generally increased
[1]; paired lung metastasis A38Lg
  reprogrammed chromatin state (global H3K9Me2/3 and acetylation, western blots): reversed the reprogrammed chromatin state
[2]
  tumor formation in 3-D suspension tumorsphere assays: selectively and strongly blocked tumor formation; also recorded: ablated tumor formation
[3]
  H3K27Ac at genes repressed from LOCKs (ChIP-seq): reduced
  LOCK-wide H3K9Me2 from reprogrammed regions (ChIP-seq): quantitative increase
  levels of H3K27Me3 (ChIP-seq): remained stable; also recorded: unchanged
[4]; distant metastatic subclone A38Lg
  CDH2 expression (RT-PCR): selectively repressed
[4]; lung metastatic subclone
  TOP2B expression (RT-PCR): selectively repressed
